Data: patent US9096500B2, “Acyl sulfonamide compounds” (Pfizer Limited, priority 2010, dated 2015)
pIC50: −log10 of the molar value. Structures can show the parent of a compound that is named as a salt.

biological target: T1, Nav1.7 (or SCN9A) channel (Homo sapiens, UniProt Q15858); experiment: Nav1.7 (hSCN9A) electrophysiology assay, Ionworks Quattro platform; format: cell-based; settings: IW: Ionworks Quattro automated electrophysiological platform; HEK cells stably expressing hSCN9A; read-out: Nav1.7 EIC50
T1 construct: expressed in transfected cells
T1 sequence (Q15858 whole entry): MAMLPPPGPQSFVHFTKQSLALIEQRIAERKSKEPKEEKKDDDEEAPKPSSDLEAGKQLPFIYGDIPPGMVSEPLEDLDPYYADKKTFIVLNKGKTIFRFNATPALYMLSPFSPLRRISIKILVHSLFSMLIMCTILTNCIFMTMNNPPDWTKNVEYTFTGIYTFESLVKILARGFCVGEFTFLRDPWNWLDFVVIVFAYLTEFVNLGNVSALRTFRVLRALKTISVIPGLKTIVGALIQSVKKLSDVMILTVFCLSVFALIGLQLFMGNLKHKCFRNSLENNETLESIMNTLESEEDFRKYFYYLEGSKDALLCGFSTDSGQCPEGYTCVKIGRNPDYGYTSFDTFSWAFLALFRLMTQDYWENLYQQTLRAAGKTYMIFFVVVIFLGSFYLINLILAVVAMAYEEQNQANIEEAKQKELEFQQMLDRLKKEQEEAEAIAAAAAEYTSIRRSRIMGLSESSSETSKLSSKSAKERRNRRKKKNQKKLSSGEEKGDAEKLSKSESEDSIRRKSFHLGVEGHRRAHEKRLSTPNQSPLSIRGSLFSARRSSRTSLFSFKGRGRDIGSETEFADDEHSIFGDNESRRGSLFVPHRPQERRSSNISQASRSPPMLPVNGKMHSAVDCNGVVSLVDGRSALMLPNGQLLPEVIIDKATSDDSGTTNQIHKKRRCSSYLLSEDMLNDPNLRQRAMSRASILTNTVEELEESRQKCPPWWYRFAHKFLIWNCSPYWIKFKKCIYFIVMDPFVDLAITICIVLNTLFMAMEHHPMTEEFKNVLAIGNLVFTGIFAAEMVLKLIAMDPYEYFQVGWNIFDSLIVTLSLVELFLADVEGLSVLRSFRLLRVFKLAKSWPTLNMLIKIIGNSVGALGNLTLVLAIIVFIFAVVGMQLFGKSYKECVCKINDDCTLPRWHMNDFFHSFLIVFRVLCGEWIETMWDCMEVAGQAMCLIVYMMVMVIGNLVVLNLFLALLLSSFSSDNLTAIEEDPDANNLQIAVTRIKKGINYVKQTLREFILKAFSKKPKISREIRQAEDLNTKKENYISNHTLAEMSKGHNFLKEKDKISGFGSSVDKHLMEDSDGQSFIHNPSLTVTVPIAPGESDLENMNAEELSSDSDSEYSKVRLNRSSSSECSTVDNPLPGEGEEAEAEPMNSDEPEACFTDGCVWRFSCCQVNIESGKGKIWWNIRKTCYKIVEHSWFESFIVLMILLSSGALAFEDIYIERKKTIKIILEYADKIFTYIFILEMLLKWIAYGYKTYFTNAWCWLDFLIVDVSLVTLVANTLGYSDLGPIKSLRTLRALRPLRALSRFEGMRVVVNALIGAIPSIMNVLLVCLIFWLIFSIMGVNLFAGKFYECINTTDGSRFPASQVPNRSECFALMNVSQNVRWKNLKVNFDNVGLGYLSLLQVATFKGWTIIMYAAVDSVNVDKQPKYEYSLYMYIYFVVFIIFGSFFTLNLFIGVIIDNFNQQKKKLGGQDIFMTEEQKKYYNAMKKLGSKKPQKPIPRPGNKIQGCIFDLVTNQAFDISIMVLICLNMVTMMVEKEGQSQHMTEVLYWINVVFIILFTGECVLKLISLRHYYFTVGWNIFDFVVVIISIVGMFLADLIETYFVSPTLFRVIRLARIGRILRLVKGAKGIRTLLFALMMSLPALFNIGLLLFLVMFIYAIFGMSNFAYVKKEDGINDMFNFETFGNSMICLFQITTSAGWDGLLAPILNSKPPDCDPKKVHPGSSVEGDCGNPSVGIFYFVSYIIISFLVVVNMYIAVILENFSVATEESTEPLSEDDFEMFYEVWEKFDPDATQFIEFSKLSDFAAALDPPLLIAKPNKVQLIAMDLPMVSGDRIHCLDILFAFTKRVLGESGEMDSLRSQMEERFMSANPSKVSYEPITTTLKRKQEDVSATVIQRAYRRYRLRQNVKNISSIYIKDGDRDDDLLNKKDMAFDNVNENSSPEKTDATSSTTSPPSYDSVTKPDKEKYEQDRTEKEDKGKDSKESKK

pIC50 | SMILES
4.66 | COc1ccc(OCc2ccc(C(=O)NS(C)(=O)=O)cc2)cc1 [Example 31, 4-[(4-Methoxyphenoxy)methyl]-N-(methylsulfonyl)benzamide]

biological target: T1, Nav1.7 (or SCN9A) channel; experiment: Nav1.7 (hSCN9A) electrophysiology assay, PatchXpress platform; format: cell-based; settings: estimated IC50 from single point electrophysiology data, HEK cells stably expressing hSCN9A, held at V1/2 of inactivation, read-out: Nav1.7 EIC50
Summary of the method: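 HEK cells stably expressing hSCN9A were recorded by whole-cell voltage clamp, including on PatchXpress, at 22–24°C with extracellular solution at pH 7.4. A 20 msec step to 0 mV followed an 8 s conditioning prepulse to the empirically determined inactivation V1/2. Inhibition was taken from current amplitude before vs after compound.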

pIC50 | SMILES
5.85 | CCc1ccccc1OCc1cc(F)c(C(=O)NS(C)(=O)=O)cc1F [Example 112, 4-[(2-ethylphenoxy)methyl]-2,5-difluoro-N-(methylsulfonyl)benzamide]
5.66 | CS(=O)(=O)NC(=O)c1cc(F)c(COc2ccccc2OC(F)(F)F)cc1F [Example 117, 2,5-difluoro-N-(methylsulfonyl)-4-{[2-(trifluoromethoxy)phenoxy]methyl}benzamide]
6.22 | CS(=O)(=O)NC(=O)c1cc(F)c(COc2ccc(F)c(C(F)(F)F)c2)cc1F [Example 142, 2,5-difluoro-4-{[4-fluoro-3-(trifluoromethyl)phenoxy]methyl}-N-(methylsulfonyl)benzamide]
7.19 | Cc1ccc(OCc2cc(F)c(C(=O)NS(C)(=O)=O)cc2F)cc1Cl [Example 151, 4-[(3-chloro-4-methylphenoxy)methyl]-2,5-difluoro-N-(methylsulfonyl)benzamide]
5.72 | CS(=O)(=O)NC(=O)c1cc(F)c(COc2ccc(C#N)c(C(F)(F)F)c2)cc1F [Example 101, 4-{[4-cyano-3-(trifluoromethyl)phenoxy]methyl}-2,5-difluoro-N-(methylsulfonyl)benzamide]
6.09 | CS(=O)(=O)NC(=O)c1cc(F)c(COc2ccc3cc(C#N)ccc3c2)cc1F [Example 99, 4-{[(6-cyano-2-naphthyl)oxy]methyl}-2,5-difluoro-N-(methylsulfonyl)benzamide]
6.74 | CS(=O)(=O)NC(=O)c1cc(F)c(COc2cc(F)cc(Cl)c2)cc1F [Example 124, 4-[(3-chloro-5-fluorophenoxy)methyl]-2,5-difluoro-N-(methylsulfonyl)benzamide]
< 5.52 | CS(=O)(=O)NC(=O)c1cc(F)c(COc2c(F)cccc2F)cc1F [Example 126, 4-[(2,6-difluorophenoxy)methyl]-2,5-difluoro-N-(methylsulfonyl)benzamide]
7.00 | Cc1cc(Cl)cc(OCc2cc(F)c(C(=O)NS(C)(=O)=O)cc2F)c1 [Example 105, 4-[(3-chloro-5-methylphenoxy)methyl]-2,5-difluoro-N-(methylsulfonyl)benzamide]

Second part, the compound before the results:

SMILES | pIC50
CS(=O)(=O)NC(=O)c1ccc(COc2ccc(C3CCNCC3)cc2)cc1 [Example 36, N-(methylsulfonyl)-4-[(4-piperidin-4-ylphenoxy)methyl]benzamide diethylamine salt] | < 5.52
CS(=O)(=O)NC(=O)c1ccc(OCc2cccc(Cl)c2)cc1 [Example 91, 4-[(3-chlorobenzyl)oxy]-N-(methylsulfonyl)benzamide] | 5.46
CS(=O)(=O)NC(=O)c1cc(F)c(COc2cccc3ccccc23)cc1F [Example 165, 2,5-difluoro-N-(methylsulfonyl)-4-[(1-naphthyloxy)methyl]benzamide] | 6.13
CCc1ccc(OCc2ccc(C(=O)NS(C)(=O)=O)c(C)c2)cc1 [Example 43, 4-[(4-Ethylphenoxy)methyl]-2-methyl-N-(methylsulfonyl)benzamide diethylamine salt] | 5.38
Cc1nccn1-c1ccc(COc2ccc(C(=O)NS(C)(=O)=O)cc2)cc1 [Example 22, 4-(4-(2-methyl-1H-imidazol-1-yl)benzyloxy)-N-(methylsulfonyl)benzamide] | < 5.52
CS(=O)(=O)NC(=O)c1cc(Cl)c(OCc2ccc(-c3ccccc3)cc2)cc1F [Example 83, 4-(biphenyl-4-ylmethoxy)-5-chloro-2-fluoro-N-(methylsulfonyl)benzamide] | 6.21
CS(=O)(=O)NC(=O)c1ccc(COc2ccc(Cl)c(Cl)c2)c(Cl)c1 [Example 29, 3-Chloro-4-((3,4-dichlorophenoxy)methyl)-N-(methylsulfonyl)benzamide Diethylamine salt] | 7.07
CS(=O)(=O)NC(=O)c1cc(F)c(COc2cccc(N3CCCCC3)c2)cc1F [Example 168, 2,5-difluoro-N-(methylsulfonyl)-4-[(3-piperidin-1-ylphenoxy)methyl]benzamide] | 5.51
CS(=O)(=O)NC(=O)c1ccc(OCC2CCCCC2)cc1 [Example 174, 4-(cyclohexylmethoxy)-N-(methylsulfonyl)benzamide] | 5.89
CS(=O)(=O)NC(=O)c1ccc(OCc2cccc3ccccc23)c(C#N)c1 [Example 5, 3-Cyano-N-(methylsulfonyl)-4-(1-naphthylmethoxy)benzamide] | 5.77
CS(=O)(=O)NC(=O)c1ccc(OCc2c(Cl)cccc2Cl)cc1 [Example 184, 4-[(2,6-dichlorobenzyl)oxy]-N-(methylsulfonyl)benzamide] | 5.59
CS(=O)(=O)NC(=O)c1cc(F)c(OCc2ccccc2OC(F)F)cc1F [Example 218, 4-{[2-(difluoromethoxy)benzyl]oxy}-2,5-difluoro-N-(methylsulfonyl)benzamide] | 5.47
CS(=O)(=O)NC(=O)c1ccc(COc2cccc(C3CCNCC3)c2)cc1 [Example 35, N-(Methylsulfonyl)-4-[(3-piperidin-4-ylphenoxy)methyl]benzamide] | < 5.52
CS(=O)(=O)NC(=O)c1ccc(OCc2ccc(Cl)cc2Cl)cc1 [Example 190, 4-[(2,4-dichlorobenzyl)oxy]-N-(methylsulfonyl)benzamide] | 6.21
COc1cc(COc2cc(F)c(C(=O)NS(C)(=O)=O)cc2F)cc(OC)c1 [Example 201, 4-[(3,5-dimethoxybenzyl)oxy]-2,5-difluoro-N-(methylsulfonyl)benzamide] | < 6.00
